According to patent publication US12077503B2, “Substituted cyclic amides and their use as herbicides” (FMC CORPORATION, priority 2015, dated 2024):

Columns and labels:
Format in all cases: in vivo
[1] = tested on: velvetleaf (Abutilon theophrasti); assay: Test G Post-Emergence Protocol; conditions: Abutilon theophrasti, post-emergence, 312 h, read-out: Velvetleaf damage rating; for pest or weed control at 15.625 g/ha: 15.625 g ai/ha, evaluated after 13 days (100=total damage to plant; 0=no damage to plant); for pest or weed control at 62.5 g/ha: 62.5 g ai/ha; for pest or weed control at 62.5 g/ha / pest or weed control at 250 g/ha: evaluated after 13 days, 100=total damage to plant, 0=no damage to plant; for pest or weed control at 250 g/ha: 250 g ai/ha
In short: (§1)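 Seedlings grown 8 days in soil in a glasshouse (24/16 °C day/night, 14 h light, 65% humidity) were sprayed post-emergence with compound in acetone/water 50:50 plus 0.5% Tween 20 at 15.625, 62.5 or 250 g/ha. Damage was scored after 13 days on a 0–100 scale (100 = total damage).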

corn (Zea mays) [2] = assay: Test G Post-Emergence Protocol; conditions: Zea mays, post-emergence, 312 h, read-out: Corn damage rating; for plant injury at 15.625 g/ha: 15.625 g ai/ha, evaluated after 13 days (100=total damage to plant; 0=no damage to plant); for plant injury at 62.5 g/ha: 62.5 g ai/ha; for plant injury at 62.5 g/ha / plant injury at 250 g/ha: evaluated after 13 days, 100=total damage to plant, 0=no damage to plant; for plant injury at 250 g/ha: 250 g ai/ha
In short: as §1

[3] = tested on: redroot pigweed (Amaranthus retroflexus); assay: Test G Post-Emergence Protocol; conditions: Amaranthus retroflexus, post-emergence, 312 h, read-out: Pigweed, Redroot damage rating; for pest or weed control at 15.625 g/ha: 15.625 g ai/ha, evaluated after 13 days (100=total damage to plant; 0=no damage to plant); for pest or weed control at 62.5 g/ha: 62.5 g ai/ha; for pest or weed control at 62.5 g/ha / pest or weed control at 250 g/ha: evaluated after 13 days, 100=total damage to plant, 0=no damage to plant; for pest or weed control at 250 g/ha: 250 g ai/ha
In short: as §1

[4] = tested on: barnyardgrass (Echinochloa crus-galli); assay: Test G Post-Emergence Protocol; conditions: Echinochloa crus-galli, post-emergence, 312 h, read-out: Barnyardgrass damage rating; for pest or weed control at 15.625 g/ha: 15.625 g ai/ha, evaluated after 13 days (100=total damage to plant; 0=no damage to plant); for pest or weed control at 62.5 g/ha: 62.5 g ai/ha; for pest or weed control at 62.5 g/ha / pest or weed control at 250 g/ha: evaluated after 13 days, 100=total damage to plant, 0=no damage to plant; for pest or weed control at 250 g/ha: 250 g ai/ha
In short: as §1

[5] = tested on: ivy-leaved morning glory (Ipomoea hederacea); assay: Test G Post-Emergence Protocol; conditions: Ipomoea, post-emergence, 312 h, read-out: Morningglory, Ivy-leaved damage rating; for pest or weed control at 15.625 g/ha: 15.625 g ai/ha, evaluated after 13 days (100=total damage to plant; 0=no damage to plant); for pest or weed control at 62.5 g/ha: 62.5 g ai/ha; for pest or weed control at 62.5 g/ha / pest or weed control at 250 g/ha: evaluated after 13 days, 100=total damage to plant, 0=no damage to plant; for pest or weed control at 250 g/ha: 250 g ai/ha
In short: as §1

[6] = tested on: giant foxtail (Setaria faberi); assay: Test G Post-Emergence Protocol; conditions: Setaria faberi, post-emergence, 312 h, read-out: Foxtail, Giant damage rating; for pest or weed control at 15.625 g/ha: 15.625 g ai/ha, evaluated after 13 days (100=total damage to plant; 0=no damage to plant); for pest or weed control at 62.5 g/ha: 62.5 g ai/ha; for pest or weed control at 62.5 g/ha / pest or weed control at 250 g/ha: evaluated after 13 days, 100=total damage to plant, 0=no damage to plant; for pest or weed control at 250 g/ha: 250 g ai/ha
In short: as §1

[7] = tested on: velvetleaf (Abutilon theophrasti); assay: Test G Pre-Emergence Protocol; conditions: Abutilon theophrasti, pre-emergence, 312 h, evaluated after 13 days; for pest or weed control at 15.625 g/ha: 15.625 g ai/ha; for pest or weed control at 15.625 g/ha / pest or weed control at 250 g/ha: read-out: Velvetleaf damage rating (100=total damage to plant; 0=no damage to plant); for pest or weed control at 62.5 g/ha: 62.5 g ai/ha, 100=total damage to plant, 0=no damage to plant, read-out: Velvetleaf damage rating; for pest or weed control at 250 g/ha: 250 g ai/ha
In short: (§2)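 Herbicidal effect was rated 13 days post-application on a scale where 100 equals total damage. Spraying took place the day after sowing, using 15.625, 62.5 or 250 g/ha of compound in a 50:50 acetone/water solution with 0.5% Tween 20.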

corn (Zea mays) [8] = assay: Test G Pre-Emergence Protocol; conditions: Zea mays, pre-emergence, 312 h, evaluated after 13 days; for plant injury at 15.625 g/ha: 15.625 g ai/ha; for plant injury at 15.625 g/ha / plant injury at 250 g/ha: read-out: Corn damage rating (100=total damage to plant; 0=no damage to plant); for plant injury at 62.5 g/ha: 62.5 g ai/ha, 100=total damage to plant, 0=no damage to plant, read-out: Corn damage rating; for plant injury at 250 g/ha: 250 g ai/ha
In short: as §2

[9] = tested on: redroot pigweed (Amaranthus retroflexus); assay: Test G Pre-Emergence Protocol; conditions: Amaranthus retroflexus, pre-emergence, 312 h, evaluated after 13 days; for pest or weed control at 15.625 g/ha: 15.625 g ai/ha; for pest or weed control at 15.625 g/ha / pest or weed control at 250 g/ha: read-out: Pigweed, Redroot damage rating (100=total damage to plant; 0=no damage to plant); for pest or weed control at 62.5 g/ha: 62.5 g ai/ha, 100=total damage to plant, 0=no damage to plant, read-out: Pigweed, Redroot damage rating; for pest or weed control at 250 g/ha: 250 g ai/ha
In short: as §2

[10] = tested on: barnyardgrass (Echinochloa crus-galli); assay: Test G Pre-Emergence Protocol; conditions: Echinochloa crus-galli, pre-emergence, 312 h, evaluated after 13 days; for pest or weed control at 15.625 g/ha: 15.625 g ai/ha; for pest or weed control at 15.625 g/ha / pest or weed control at 250 g/ha: read-out: Barnyardgrass damage rating (100=total damage to plant; 0=no damage to plant); for pest or weed control at 62.5 g/ha: 62.5 g ai/ha, 100=total damage to plant, 0=no damage to plant, read-out: Barnyardgrass damage rating; for pest or weed control at 250 g/ha: 250 g ai/ha
In short: as §2

[11] = tested on: ivy-leaved morning glory (Ipomoea hederacea); assay: Test G Pre-Emergence Protocol; conditions: Ipomoea, pre-emergence, 312 h, evaluated after 13 days; for pest or weed control at 15.625 g/ha: 15.625 g ai/ha; for pest or weed control at 15.625 g/ha / pest or weed control at 250 g/ha: read-out: Morningglory, Ivy-leaved damage rating (100=total damage to plant; 0=no damage to plant); for pest or weed control at 62.5 g/ha: 62.5 g ai/ha, 100=total damage to plant, 0=no damage to plant, read-out: Morningglory, Ivy-leaved damage rating; for pest or weed control at 250 g/ha: 250 g ai/ha
In short: as §2

[12] = tested on: giant foxtail (Setaria faberi); assay: Test G Pre-Emergence Protocol; conditions: Setaria faberi, pre-emergence, 312 h, evaluated after 13 days; for pest or weed control at 15.625 g/ha: 15.625 g ai/ha; for pest or weed control at 15.625 g/ha / pest or weed control at 250 g/ha: read-out: Foxtail, Giant damage rating (100=total damage to plant; 0=no damage to plant); for pest or weed control at 62.5 g/ha: 62.5 g ai/ha, 100=total damage to plant, 0=no damage to plant, read-out: Foxtail, Giant damage rating; for pest or weed control at 250 g/ha: 250 g ai/ha
In short: as §2

In the case of `CN1C[C@H](c2cccc(C(F)(F)F)c2)[C@@H](C(=O)Nc2cccnc2F)C1=O` (racemic) [Compound 1809], the pest or weed control at 15.625 g/ha [1] is reported as 0%, the pest or weed control at 62.5 g/ha [1] is reported as 0% and the pest or weed control at 250 g/ha [1] is reported as 40%. The plant injury at 15.625 g/ha (corn (Zea mays) [2]) was 80%, the plant injury at 62.5 g/ha (corn (Zea mays) [2]) was 80% and the plant injury at 250 g/ha (corn (Zea mays) [2]) was 80%. For the same compound, the pest or weed control at 15.625 g/ha [3] was 20%, the pest or weed control at 62.5 g/ha [3] was 20% and the pest or weed control at 250 g/ha [3] was 50%. The pest or weed control at 15.625 g/ha [4] was 80%, the pest or weed control at 62.5 g/ha [4] was 80% and the pest or weed control at 250 g/ha [4] was 80%. The pest or weed control at 15.625 g/ha [5] was 20%, the pest or weed control at 62.5 g/ha [5] was 70% and the pest or weed control at 250 g/ha [5] was 70%. The pest or weed control at 15.625 g/ha [6] was 80%, the pest or weed control at 62.5 g/ha [6] was 80% and the pest or weed control at 250 g/ha [6] was 80%. The pest or weed control at 15.625 g/ha [7] was 0%, the pest or weed control at 62.5 g/ha [7] was 0% and the pest or weed control at 250 g/ha [7] was 50%. The plant injury at 15.625 g/ha (corn (Zea mays) [8]) was 60%, the plant injury at 62.5 g/ha (corn (Zea mays) [8]) was 80% and the plant injury at 250 g/ha (corn (Zea mays) [8]) was 90%. For the same compound, the pest or weed control at 15.625 g/ha [9] was 0%, the pest or weed control at 62.5 g/ha [9] was 0% and the pest or weed control at 250 g/ha [9] was 60%. For the same compound, the pest or weed control at 15.625 g/ha [10] was 90%, the pest or weed control at 62.5 g/ha [10] was 80% and the pest or weed control at 250 g/ha [10] was 90%. It also gave a pest or weed control at 15.625 g/ha [11] of 10%, a pest or weed control at 62.5 g/ha [11] of 70% and a pest or weed control at 250 g/ha [11] of 80%. It also gave a pest or weed control at 15.625 g/ha [12] of 90%, a pest or weed control at 62.5 g/ha [12] of 90% and a pest or weed control at 250 g/ha [12] of 90%.

With `CCOc1cc([C@@H]2CN(C)C(=O)[C@H]2C(=O)Nc2cccc(F)c2C)ccc1F` (racemic) [Compound 1767] the pest or weed control at 15.625 g/ha [1] was 0%, the pest or weed control at 62.5 g/ha [1] was 0% and the pest or weed control at 250 g/ha [1] was 60%. It also gave a plant injury at 15.625 g/ha (corn (Zea mays) [2]) of 10%, a plant injury at 62.5 g/ha (corn (Zea mays) [2]) of 10% and a plant injury at 250 g/ha (corn (Zea mays) [2]) of 60%. For the same compound, the pest or weed control at 15.625 g/ha [3] was 0%, the pest or weed control at 62.5 g/ha [3] was 0% and the pest or weed control at 250 g/ha [3] was 20%. For the same compound, the pest or weed control at 15.625 g/ha [4] was 40%, the pest or weed control at 62.5 g/ha [4] was 50% and the pest or weed control at 250 g/ha [4] was 80%. It also gave a pest or weed control at 15.625 g/ha [5] of 30%, a pest or weed control at 62.5 g/ha [5] of 30% and a pest or weed control at 250 g/ha [5] of 60%. For the same compound, the pest or weed control at 15.625 g/ha [6] was 70%, the pest or weed control at 62.5 g/ha [6] was 70% and the pest or weed control at 250 g/ha [6] was 80%. The pest or weed control at 15.625 g/ha [7] was 0%, the pest or weed control at 62.5 g/ha [7] was 0% and the pest or weed control at 250 g/ha [7] was 30%. The plant injury at 15.625 g/ha (corn (Zea mays) [8]) was 0%, the plant injury at 62.5 g/ha (corn (Zea mays) [8]) was 30% and the plant injury at 250 g/ha (corn (Zea mays) [8]) was 60%. The pest or weed control at 15.625 g/ha [9] was 0%, the pest or weed control at 62.5 g/ha [9] was 0% and the pest or weed control at 250 g/ha [9] was 0%. The pest or weed control at 15.625 g/ha [10] was 20%, the pest or weed control at 62.5 g/ha [10] was 60% and the pest or weed control at 250 g/ha [10] was 80%. For the same compound, the pest or weed control at 15.625 g/ha [11] was 0%, the pest or weed control at 62.5 g/ha [11] was 0% and the pest or weed control at 250 g/ha [11] was 20%. The pest or weed control at 15.625 g/ha [12] was 60%, the pest or weed control at 62.5 g/ha [12] was 80% and the pest or weed control at 250 g/ha [12] was 90%.
